Data: PMC6341489 (2016)

Tested on: 2-AP-labeled miR-21-hp RNA (RNA, miRNA, 2-aminopurine at 15 (replaces A15)) GGGUUGACUGUUGAAUCUCAUGGCAACCC
Assay: 2-aminopurine fluorescence titration
Conditions: 137 mM NaCl, 3 mM KCl; apparent; PBS pH 7.4, 10% DMSO, RT, 2 μM RNA

Kd: 3.2 ± 0.7 µM
Compound: OC(CNc1ccccc1)Cn1c2ccc(Br)cc2c2cc(Br)ccc21 (stereo not shown)
